{
  "source": "patent US20080260774A1",
  "about": "“Alpha-galactosyl ceramide analogs and their use as immunotherapies” (priority 2007, published 2008)",
  "key": {"[1]": {"test_system": "human naïve NKTs (CD161^+CD3^+)", "experiment": "Cytokine/chemokine secretion by human naïve CD161+CD3+ NKTs co-cultured with autologous immature CD14+ DCs", "type": "cell-based", "conditions": "normalized to DMSO control"}, "[2]": {"test_system": "naïve CD161^+/CD3^+ NKTs", "experiment": "Human NKT TCR activation (phosphoproteins), glycolipid presented by HeLa, HeLa-CD1d or iDCs, 10 μg/ml", "type": "cell-based", "conditions": "10 μg/ml"}, "[3]": {"test_system": "BALB/c mice", "experiment": "Mouse serum cytokines/chemokines after IV, SubQ or IM injection", "type": "in vivo", "conditions": "IV route"}, "[4]": {"test_system": "BALB/c mice", "experiment": "Expansion/activation of mouse splenocyte subpopulations 72 h after injection", "type": "in vivo"}, "[5]": {"test_system": "C57BL/6 mice", "experiment": "Expansion of NKT subsets in spleens of C57BL/6 mice", "type": "in vivo", "conditions": "C57BL/6 Wt, 72 h post IV injection, 0.1 μg per mouse"}, "[6]": {"test_system": "syngeneic lung cancer (TC1) cells", "experiment": "Lung cancer model in mice (TC1, IV inoculation)", "type": "in vivo, mouse", "conditions": "IV administration"}, "[7]": {"test_system": "syngeneic breast cancer (4T1)", "experiment": "Breast cancer model in mice (4T1, SubQ inoculation)", "type": "in vivo, mouse", "conditions": "mice bearing breast cancer"}, "[8]": {"test_system": "tetanus toxoid (TT)", "conditions": "mouse, in vivo"}, "[9]": {"test_system": "H5 of avian influenza viruses (pHA)", "type": "in vivo, mouse"}, "[10]": {"type": "in vivo, mouse", "conditions": "two weeks after the third vaccination", "procedure": "BALB/c mice were injected IM with globo H-DT/α-GalCer or globo H-DT/α-GalCer analogs three times at two weeks interval. Sera was collected two weeks after the third vaccination and tested for IgG and IgM anti-globo H-specific antibody at 1:480 and 1:240 dilution, respectively, using a glycan microarray."}, "[11]": {"test_system": "FLU-A virus serotype H1N1 (WSN)", "experiment": "Cytopathetic effect / virus titer in MDCK cells infected with H1N1 (WSN)", "type": "cell-based", "conditions": "pretreated at 10 μg/ml for four hours; 10TCID50; 48 hours post-infection", "procedure": "FIG. 60(A-B) show the cytopathetic effect (CPE) of Madin-Darby canine kidney (MDCK) cells in vitro. MDCK cells were pretreated with vehicle, α-GalCer or one of the α-GalCer analogs C13, C14 or C16 at 10 μg/ml for four hours, followed by infection with FLU-A virus serotype H1N1 (WSN) at 10TCID50.\nBALB/c mice were treated via intranasal route with control, α-GalCer (C1) or the α-GalCer analogs C13, C14 or C16 at one hour prior to virus challenge with H1N1 (WSN). […] In general, certain α-GalCer analogs may exert direct anti-viral effects, or act indirectly via immune stimulation. […] MDCK cells were pretreated with vehicle, α-GalCer or one of the α-GalCer analogs C13, C14 or C16 at 10 μg/ml for four hours, followed by infection with FLU-A virus serotype H1N1 (WSN) at 10TCID50."}, "[12]": {"test_system": "Sphingomonas capsulata", "experiment": "Antibacterial efficacy in Sphingomonas capsulata infected mice", "type": "in vivo, mouse", "source_text": "Sphingomonas capsulata is a common environmental bacterial strain that is found in many places such as the air and water. It can be easily identified on nutrient agar plates because of its yellow colony color. […] Since the antibacterial activities of glycolipid antigens are mediated through the activation of NKT cells by glycolipid bound-CD1-d molecules, evaluation of the antibacterial efficacies using the disease model of Sphingomonas capsulata infection will focus on the impact of the NKT mediated pathway that is activated by glycolipid bindings. Six to eight week old female C57BL/6 mice were injected IP with Sphingomonas capsulate cells. […] Twenty-four hours after bacterial infection, livers were removed from mice and homogenized. Colony formation units (CFU) of Sphingomonas capsulate in liver homogenates were determined by plating diluted samples on nutrient plates. Colonies were counted after incubation for 48 hours at 37° C. […] To confirm the antibacterial efficacies of these α-GalCer analogs, another study was conducted to repeat the study by treating infected mice with 50 μg/kg in the same disease model. […] Six to eight week old female C57BL/6 mice were injected IP with 5×10^8 Sphingomonas capsulate cells. Mice were grouped into treatment and control groups with 4-6 mice per group. Four hours after the infection, mice in the treatment group were injected IP with testing α-GalCer analogs at 50 or 100 μg/kg, and the control group mice were injected with same volumes of PBS. Twenty-four hours after bacterial infection, mice from all groups were sacrificed. Livers were removed from mice and homogenized in 0.9% NaCl, 0.02% Tween 80 using tissue homogenizers. Colony formation units (CFU) of Sphingomonas capsulate in liver homogenates were determined by plating diluted samples on nutrient plates. Colonies were counted after incubation for 48 hours at 37° C."}, "[13]": {"test_system": "Klebsiella pneumoniae", "experiment": "Antibacterial efficacy in K. pneumoniae infected mice", "type": "in vivo, mouse", "conditions": "100 μg/kg twice at 4-hour and 8-hour after infection", "procedure": "K. pneumoniae is a Gram negative bacterium that causes liver abscess and is becoming a serious disease in Taiwan among diabetic patients. […] BALB/cByl female mice were administered a single dose of live K. pneumoniae by oral gavage. […] Twenty four hours after infection, both the liver and lungs were collected from each mouse, and homogenized. Bacterial counts were determined similarly as described above. BALB/c-Byl female mice (ten mice per group) were administered a single dose (10^6 CFU) of live-K. pneumoniae by oral gavage. Mice in the treatment groups were injected with testing α-GalCer analogs at 100 μg/kg twice at 4-hour and 8-hour after bacterial infection. Mice in the control group were injected with PBS at 4- and 8-hour. Twenty four hours after infection, all mice were sacrificed. Both livers and lungs were collected from each mouse, and homogenized. Bacterial counts were determined similarly as described above."}, "[14]": {"test_system": "tumor metastasis", "conditions": "mice; cited from earlier work"}, "[15]": {"test_system": "mouse spleen cells", "conditions": "in vitro stimulation; cited from earlier work"}, "[16]": {"test_system": "mycobacterium tuberculosis, Pseudomonas aeruginosa", "conditions": "in vivo; cited from earlier work"}, "[17]": {"test_system": "advanced cancers", "conditions": "cited from earlier work"}},
  "note": "Entries after “also recorded” stand apart in the source; their conditions may differ.",
  "data": [
    {"smiles": "CCCCCCCCCCCCCCCCCCCCCCCCCC(=O)N[C@@H](CO[C@H]1O[C@H](CO)[C@H](O)[C@H](O)[C@H]1O)[C@H](O)[C@H](O)CCCCCCCCCCCCCC", "note": "[C1, α-Galactosyl ceramide, reference compound]", "values": [
      {"measurement": "IFN/IL-4 ratio (TH1/TH2 bias)", "setting": "[1]", "value": "more TH2-biased"},
      {"measurement": "intracellular phospho-CD3ε", "setting": "[2]; presented by DCs", "value": 10.8, "unit": "folds"},
      {"measurement": "intracellular phospho-CD3ε", "setting": "[2]; presented by HeLa-CD1d cells", "value": "7.3 folds of control"},
      {"measurement": "phospho-ERK1/2", "setting": "[2]; with DCs", "value": 30, "unit": "folds"},
      {"measurement": "phospho-ERK1/2", "setting": "[2]; with HeLa-CD1d cells", "value": 6.6, "unit": "folds increase"},
      {"measurement": "IFN-γ/IL-4 ratio (TH1/TH2 bias)", "setting": "[3]; 2 hours, compared with C1", "value": "less TH2 responses than C1"},
      {"measurement": "serum level of IFN-γ", "setting": "[3]; over 72 hours", "value": "highest level of IFN-γ when given IV"},
      {"measurement": "B cell expansion", "setting": "[4]; FIGS. 26E, 28E and 30E", "value": "more active than C1"},
      {"measurement": "CD8^+ T cell expansion/activation", "setting": "[4]; FIGS. 26F, 28F and 30F", "value": "more active than C1"},
      {"measurement": "B cell expansion/activation", "setting": "[4]; SubQ route", "value": "significant activities"},
      {"measurement": "CD4^+ T cells", "setting": "[4]; SubQ route", "value": "most effective; also recorded: more active over control"},
      {"measurement": "total number of NKTs and its two subtypes NKT1 and NKT2", "setting": "[5]", "value": "increase of total number of NKTs"},
      {"measurement": "anti-cancer efficacy compared with C1", "setting": "[6]", "value": "significantly greater anti-cancer efficacy than C1"},
      {"measurement": "effect of route of administration (SubQ vs IV) on anti-tumor efficacy", "setting": "[7]", "value": "more effective than IV delivery in prolonging the survival of mice bearing breast cancer; also recorded: statistically better efficacy with SubQ delivery over IV route"},
      {"measurement": "antibody production compared with Alum", "setting": "[8]", "value": "significantly greater antibody production than Alum"},
      {"measurement": "antibody response relative to conventional vaccine", "setting": "[8]", "value": "~2", "unit": "fold"},
      {"measurement": "level of antibody after delayed boost compared with TT+Alum", "setting": "[8]", "value": "twice as high as those given TT+Alum"},
      {"measurement": "adjuvant activities in enhancing the anti-HAc antibody titer", "setting": "[9]; 0.2 μg pHAc", "value": "better adjuvant activities than the others in enhancing the antibody titer"},
      {"measurement": "anti-H5 responses", "setting": "[9]; 5-45 μg H5 DNA vaccine, three weeks after first immunization", "value": "enhanced by α-GalCer at 5-30 μg H5 DNA, but reached a plateau at 45 μg"},
      {"measurement": "adjuvant effect on anti-H5 titers", "setting": "[9]; H5 DNA dose 0.2-5 μg, two weeks after second immunization", "value": "evident for all low dosages tested"},
      {"measurement": "anti-HA-specific IgG antibody", "setting": "[9]; three weeks after one dose immunization", "value": "enhanced"},
      {"measurement": "anti-globo H IgM antibody", "setting": "[10]; 1:240 dilution", "value": "not in C1 treated group"},
      {"measurement": "anti-globo H IgG antibody", "setting": "[10]; 1:480 dilution", "value": "elicited significant IgG antibody production"},
      {"measurement": "entry/replication of H1N1 virus (virus titer)", "setting": "[11]", "value": "slight inhibition of the entry/replication of H1N1 virus in vitro"},
      {"measurement": "difference in the values of the CFU per gram liver among efficacious groups", "setting": "[12]; 50 μg/kg", "value": "not statistically significant"},
      {"measurement": "CFU numbers in liver", "setting": "[12]; 100 μg/kg IP, 24 hour after bacterial infection", "value": "significantly lower than the control group"},
      {"measurement": "bacterial loads in mouse lung and liver", "setting": "[13]", "value": "significantly reduce the bacterial loads in mouse lung and liver"},
      {"measurement": "tumor metastasis", "setting": "[14]", "value": "suppress tumor metastasis to liver, lung and lymph nodes"},
      {"measurement": "NKT proliferation and cytokine production", "setting": "[15]", "value": "proliferation of NKTs and production of both IFN-[…] and IL-4"},
      {"measurement": "antibacterial activities", "setting": "[16]", "value": "amelioration of mycobacterium tuberculosis infections, clearance of lung infection by Pseudomonas aeruginosa"},
      {"measurement": "toxicity", "setting": "[17]; human, in vivo", "value": "without any toxicity"},
      {"measurement": "clinical anti-tumor outcome", "setting": "[17]; α-GalCer or α-GalCer-loaded iDCs, phase I", "value": "no durable tumor regression, stable disease was noted in several patients"}
    ]}
  ]
}
